Results published in patent US20250082766A1, “TREATMENT OF BRAIN TUMORS BY TARGETING THE CHOLESTEROL PATHWAY IN ASTROCYES” (Ramot at Tel-Aviv University Ltd., priority 2022, published 2025).

Experiments:
LDLR = LDLR expression by immunoblot in glioma cells treated with LXR agonist; type: cell-based, mouse; settings: GL261 and CT-2A cells; 24-OHC vs Mock (DMSO); FIGS. 5H-I
Experimental: FIGS. 5A-N illustrate that astrocyte-derived cholesterol supports glioma survival. (FIGS. 5A-D) Real-time changes in the ECAR (FIGS. 5A-B) and oxygen consumption rate (OCR) (FIGS. 5C-D) of GL261 glioma cells, cultured in media supplemented with full serum (FCS, fetal calf serum) or lipoprotein-deprived serum (LPDS, Lipoprotein-deficient serum) for 18 hours and measured using Seahorse. Oligo, oligomycin; FCCP, carbonyl cyanide4-(trifluoromethoxy) phenylhydrazone; R/A, rotenone plus antimycin A; 2-DG, 2-deoxy-d-glucose. Glycolysis, glycolytic capacity and glycolytic reserve were extracted from the ECAR reading, and basal respiration, adenosine triphosphate (ATP) production, Maximal respiration, and spare respiratory capacity were determined based on OCR. […] (FIG. 5E) Percentage of cell death of GL261 and CT-2A glioma cells, or primary astrocytes, cultured in FCS or LPDS for 5 days; as determined by Annexin-V assay (n=5 independent experiments). […] Representative flow cytometry plots of Annexin-V/DAPI staining from each group are shown in FIG. 5F and quantification analyses of cholesterol rescue are in FIG. 5G (n=5 biologically independent experiments). […] (FIG. 5N) quantification analyses of human U87EGFRvIII (U87) glioma cells co-cultured with human primary astrocytes for 5 days (n=3 biologically independent experiments). […]

[1] = tested on: GL261 and CT-2A glioma cells; assay: Cell viability assay (Annexin V/DAPI FACS) of glioma cells; type: cell-based, mouse; set-up: glioma viability: dose or concentration left out as unconfirmed
Experimental: FIGS. 5A-N illustrate that astrocyte-derived cholesterol supports glioma survival. (FIGS. 5A-D) Real-time changes in the ECAR (FIGS. 5A-B) and oxygen consumption rate (OCR) (FIGS. 5C-D) of GL261 glioma cells, cultured in media supplemented with full serum (FCS, fetal calf serum) or lipoprotein-deprived serum (LPDS, Lipoprotein-deficient serum) for 18 hours and measured using Seahorse. Oligo, oligomycin; FCCP, carbonyl cyanide4-(trifluoromethoxy) phenylhydrazone; R/A, rotenone plus antimycin A; 2-DG, 2-deoxy-d-glucose. Glycolysis, glycolytic capacity and glycolytic reserve were extracted from the ECAR reading, and basal respiration, adenosine triphosphate (ATP) production, Maximal respiration, and spare respiratory capacity were determined based on OCR. Data are representative of two independent experiments (n=6 technical replicates per experiment). (FIG. 5E) Percentage of cell death of GL261 and CT-2A glioma cells, or primary astrocytes, cultured in FCS or LPDS for 5 days; as determined by Annexin-V assay (n=5 independent experiments). […] Representative flow cytometry plots of Annexin-V/DAPI staining from each group are shown in FIG. 5F and quantification analyses of cholesterol rescue are in FIG. 5G (n=5 biologically independent experiments). (FIGS. 5H-K) Representative images and quantification of LDLR expression (Immunoblot, FIGS. 5H-I) and cell death via FACS analysis of Annexin V/DAPI staining (FIGS. 5J-K) in response to endogenous LXR agonists (24-OHC) or Mock (DMSO) treatment in GL261 and CT-2A cells (n=3 biologically independent experiments). […] (FIGS. 5L-M) Representative flow cytometry plots of murine GL261 and CT-2A glioma cells co-cultured for 5 days with primary mouse astrocytes are shown in FIG. 5L and quantification analyses in FIG. 5M (n=4 biologically independent experiments). (FIG. 5N) quantification analyses of human U87EGFRvIII (U87) glioma cells co-cultured with human primary astrocytes for 5 days (n=3 biologically independent experiments). […]

[2] = tested on: tumours with EGFR or IDH1 mutations; settings: patient-derived GBM xenograft mice; cited from earlier work
glioma [3] = settings: OXPHOS-targeting drugs; cited from earlier work
glioma [4] = settings: experimental glioma mouse models; cited from earlier work
primary astrocytes = assay: Cell viability assay (Annexin V/DAPI FACS) of primary astrocytes; type: cell-based, mouse; set-up: dose or concentration left out as unconfirmed; settings: lovastatin, 3 day treatment; FIGS. 11G-H
Source text: FIGS. 11A-K illustrate that astrocyte-derived cholesterol supports glioma survival. (FIG. 11A) Representative immunofluorescence images of cholesterol accumulation (Filipin III, white) in the GBM tumor (tdTomato^+ GL261 cells, red), Tumor margins are indicated in yellow (n=3 biologically independent samples). Scale bars, 400 μm (right), 150 μm (left). (FIGS. 11B-E) Real-time changes in the ECAR (FIGS. 11B-C) and OCR (FIGS. 11D-E) of CT-2A glioma cells, cultured in media supplemented with full serum (FCS) or lipoprotein-deprived serum (LPDS) for 18 hours and measured using Seahorse. […] Glycolysis, glycolytic capacity and glycolytic reserve are extracted from ECAR reading, and basal respiration, ATP production, Maximal respiration, and spare respiratory capacity were determined based on OCR. […] (FIGS. 11I-J) Representative immunoblot and quantification analyses comparing LDLR protein levels in with CT-2A and GL261 cells cluttered for 2 days in FCS or LPDS supplemented media. […] P values were determined by two-sided Student's t-tests (FIGS. 11B-E and 11I-K) or by one-way ANOVA, followed by Fisher's LSD post-hoc analysis (FIGS. 11G-H). *P<0.05, **P<0.01, ***P<0.001.
GL261, CT-2A, or astrocytes were seeded at a density of 1.5×10^5 cells per well in a 6-well plate. […] Microglial cell death was determined by LDH Assay (Sigma-Aldrich, #4744934001) according to the manufacturer's instructions. […]

## CC(C)[C@@H](O)CC[C@@H](C)[C@H]1CC[C@H]2[C@@H]3CC=C4C[C@@H](O)CC[C@]4(C)[C@H]3CC[C@]12C [24-OHC, 24(S)-hydroxycholesterol]
LDLR
  LDLR expression (degradation): dose-dependent LDLR degradation
[1]; 24-OHC for 72 hours, GL261 and CT-2A glioma cell lines, FIGS. 5J-K
  glioma cell death: dramatic cell death

## CCc1n(CC(=O)O[C@@H]2C[C@H](C)CC[C@H]2C(C)C)c2ccccc2[n+]1C.[Cl-] [Gboxin]
[2]
  growth of tumours: suppresses the growth of tumours
Glioma [3]
  glioma proliferation and cell death: inhibit glioma proliferation and induce cell death

## FC(F)(F)c1ccc(CNc2ccc(Cc3c[nH]c4ncc(Cl)cc34)cn2)cn1 [PLX3397]
Glioma [4]
  glioma expansion: reduces glioma expansion

## CC[C@H](C)C(=O)O[C@H]1C[C@@H](C)C=C2C=C[C@H](C)[C@H](CC[C@@H]3C[C@@H](O)CC(=O)O3)[C@H]21 [lovastatin, Lovastatin]
[1]; lovastatin, 3 day treatment, CT-2A and GL261, FIGS. 11G-H
  glioma viability: did not affect glioma viability
Primary astrocytes
  cell death of primary astrocytes: significant cell death of primary astrocytes
